Assay results from patent US20090137658A1, “BENZENESULFONIC ACID SALT COMPOUNDS” (Tanabe Seiyaku Co.,Ltd., priority 2003, published 2009).
“Also recorded” adds a separate entry of the source. Values belong to the compound of their own block, whether it stands above or below them.

What was measured:
Assay type in all cases: physicochemical
[1] = Hygroscopicity / deliquescence of crystalline salts at elevated relative humidity
Description: This is exemplified by the hygroscopicity of the crystalline hydrochloride (HCl) salt of trans-4-({2-[(2S)-2-cyanopyrrolidinyl]-2-oxoethyl}amino)-N,N-dimethylcyclohexanecarboxamide. […] That is, the benzenesulfonic acid salts of the present invention sorb much lower amounts of water when exposed to a broad range of humidities and can be prepared in a physically stable crystal form, thus enhancing their suitability as medicaments.

[2] = Moisture sorption testing of besylate monohydrate salt (integrated gas flow microbalance)
Procedure: Moisture sorption was measured with an integrated gas flow microbalance system. Approximately 20 mg of 4-({2-[(2S)-2-cyanopyrrolidinyl]-2-oxoethyl}amino)-N,N-dimethylcyclohexanecarboxamide besylate monohydrate salt was weighed into a sample pan of an integrated gas flow microbalance system (SGA100, VTI Corporation). The sample was dried at 60° C. under a dry nitrogen stream until the rate of weight loss was less than 0.015% in 5 minutes. After drying the sample was equilibrated at 25° C. and the relative humidity increased stepwise (adsorption) to 5, 15, 25, 35, 45, 55, 65, 75, 85 and 95% Each relative humidity step was held until the sample equilibrated at that condition. Equilibrium was defined as a weight change of less than 0.015% in 5 minutes. The relative humidity was then decreased step wise (desorption) to 90, 80, 70, 60, 50, 40, and 20% Each step was held until equilibrium was reached. The equilibrium condition was the same as in the sorption phase. The % w/w increase or decrease in moisture content of the sample is reported for each equilibrated RH condition.

[3] = Infrared (IR) studies of hydration/dehydration of besylate monohydrate
Procedure: The partially dehydrated form of the monohydrate Form 1 of Formula I is stable for at least 24 hours at room temperature and partial hydration to the monohydrate of Formula I can be recovered at higher relative humidity (RH).
Samples of trans-4-({2-[(2S)-2-cyanopyrrolidinyl]-2-oxoethyl}amino)-N,N-dimethylcyclohexane-carboxamide besylate monohydrate either as a pure solid or diluted in KBr powder were placed inside a FTIR spectrometer purged under dry N2 at room temperature (RT). […] Upon re-exposure of the partially dehydrated samples to the atmosphere for <1 min., the intensities of these IR bands are fully recovered. The FTIR spectrum of this experiment is in FIG. 4.

[4] = Moisture sorption testing of besylate anhydrate salt (integrated vacuum microbalance); conditions: in the presence of water vapour, such as at elevated relative humidity
Procedure: Moisture sorption was measured with an integrated vacuum microbalance system. Approximately 11 mg of 4-({2-[(2S)-2-cyanopyrrolidinyl]-2-oxoethyl}amino)-N,N-dimethylcyclohexanecarboxamide besylate anhydrate salt was weighed into a sample pan of an integrated vacuum microbalance system (MB300G, VTI Corporation). The sample was dried at 60° C. under vacuum until the rate of weight loss was less than 0.015% in 2 minutes. After drying the sample was equilibrated at 25° C. and the relative humidity increased stepwise (adsorption) to 15, 25, 35, 45, 55, 65, 75, 85 and 95% Each relative humidity step was held until the sample equilibrated at that condition. Equilibrium was defined as a weight change of less than 0.015% in 2 minutes. The relative humidity was then decreased step wise (desorption) to 90, 80, 70, 60, 50, 40, 30 and 20% Each step was held until equilibrium was reached. The equilibrium condition was the same as in the sorption phase. The % w/w increase or decrease in moisture content of the sample is reported for each equilibrated RH condition.

[5] = purged under dry N2 at room temperature

SMILES: CN(C)C(=O)[C@H]1CC[C@H](NCC(=O)N2CCC[C@H]2C#N)CC1.Cl (relative stereo) [HCl salt, trans-4-({2-[(2S)-2-cyanopyrrolidinyl]-2-oxoethyl}-amino)-N,N-dimethylcyclohexanecarboxamide hydrochloride]
time to deliquesce ([1]; 25° C., relative humidities greater than 75%): approximately 20 hours
time to deliquesce ([1]; 40° C., relative humidities of greater than 75%): approximately 24 hours

SMILES: CN(C)C(=O)[C@H]1CC[C@H](NCC(=O)N2CCC[C@H]2C#N)CC1 [Form 1, trans-4-({2-[(2S)-2-cyanopyrrolidinyl]-2-oxoethyl}amino)-N,N-dimethylcyclohexanecarboxamide benzenesulfonate monohydrate]
water absorbed ([2]; relative humidity between 0% and 95% at 25° C.): less than 10 % w/w
additional water sorbed by the monohydrate ([2]; up to 95% relative humidity, on top of monohydrate water content): 1-2 % w/w
desorption of adsorbed water ([2]; when the relative humidity is decreased): readily desorbs
re-exposure time to the atmosphere after which IR bands are fully recovered ([3]; partially dehydrated samples re-exposed to the atmosphere): < 1 min
time to reach dehydration equilibrium (IR bands of H2O) [3, 5]: ~30 min
time within which IR bands assigned to H2O decreased very rapidly [3, 5]: ≤ 10 min
stability of the partially dehydrated form ([3]; room temperature): at least 24 hours
dehydration (loss of water) ([3]; room temperature, purged with or exposed to dried air or dry nitrogen (low relative humidity), benzenesulfonate monohydrate): loses water readily; also recorded: partial dehydration of the hydrate is facile
re-hydration of the dehydrated form ([3]; upon exposure to atmospheric humidity / higher relative humidities, benzenesulfonate monohydrate): re-hydration occurs rapidly; also recorded: re-hydration to the monohydrate occurs very rapidly

conversion of anhydrate form [4]: converts to the hydrate
SMILES: CN(C)C(=O)C1CCC(NCC(=O)N2CCC[C@H]2C#N)CC1.O=S(=O)(O)c1ccccc1 (stereo partly drawn) [Form 2, trans-4-({2-[(2S)-2-cyanopyrrolidinyl]-2-oxoethyl}amino)-N,N-dimethylcyclohexanecarboxamide besylate anhydrate]
